Experimental data: the NIST ThermoML archive (doi:10.1016/j.jct.2019.105891)
± gives the expanded uncertainty stated by the source.

Columns and labels:
[1] = 100 kPa, Liquid, Falling or rolling sphere viscometry
[2] = refractive index (Na D-line) (dimensionless); settings: 100 kPa, Liquid, Standard Abbe refractometry
[3] = xn = mol fraction of the nth substance listed; settings: 100 kPa, Liquid, Falling or rolling sphere viscometry
[4] = refractive index (Na D-line) (dimensionless); xn = mol fraction of the nth substance listed; settings: 100 kPa, Liquid, Standard Abbe refractometry

CCCCn1cc[n+](C)c1.F[B-](F)(F)F [1-butyl-3-methylimidazolium tetrafluoroborate]
Settings	refractive index, 293.15 K	refractive index, 303.15 K	refractive index, 313.15 K	refractive index, 323.15 K	viscosity, 293.15 K [mPa·s]	viscosity, 303.15 K [mPa·s]	viscosity, 313.15 K [mPa·s]	viscosity, 323.15 K [mPa·s]
[1]	–	–	–	–	135.7 ± 9.2	80.4 ± 5	51.4 ± 3.1	34.92 ± 2.1
[2]	1.42144 ± 0.0011	1.41913 ± 0.0011	1.41621 ± 0.0011	1.4133 ± 0.0011	–	–	–	–

CCCCn1cc[n+](C)c1.F[B-](F)(F)F [1-butyl-3-methylimidazolium tetrafluoroborate] + Nc1ccccc1
x1 = 1
Settings	refractive index, 293.15 K	refractive index, 303.15 K	refractive index, 313.15 K	refractive index, 323.15 K	viscosity, 293.15 K [mPa·s]	viscosity, 303.15 K [mPa·s]	viscosity, 313.15 K [mPa·s]	viscosity, 323.15 K [mPa·s]
[3]	–	–	–	–	135.7 ± 9.2	80.4 ± 5	51.4 ± 3.1	34.92 ± 2.1
[4]	1.42144 ± 0.0011	1.41913 ± 0.0011	1.41621 ± 0.0011	1.4133 ± 0.0011	–	–	–	–

CCn1cc[n+](C)c1.F[B-](F)(F)F [1-ethyl-3-methylimidazolium tetrafluoroborate]
Settings	refractive index, 293.15 K	refractive index, 303.15 K	refractive index, 313.15 K	refractive index, 323.15 K	viscosity, 293.15 K [mPa·s]	viscosity, 303.15 K [mPa·s]	viscosity, 313.15 K [mPa·s]	viscosity, 323.15 K [mPa·s]
[1]	–	–	–	–	45.69 ± 2.8	30.54 ± 1.9	21.82 ± 1.3	16.42 ± 1
[2]	1.41509 ± 0.0011	1.41117 ± 0.0011	1.40802 ± 0.0011	1.40512 ± 0.0011	–	–	–	–

CCn1cc[n+](C)c1.F[B-](F)(F)F [1-ethyl-3-methylimidazolium tetrafluoroborate] + Nc1ccccc1
x1 = 1
Settings	refractive index, 293.15 K	refractive index, 303.15 K	refractive index, 313.15 K	refractive index, 323.15 K	viscosity, 293.15 K [mPa·s]	viscosity, 303.15 K [mPa·s]	viscosity, 313.15 K [mPa·s]	viscosity, 323.15 K [mPa·s]
[3]	–	–	–	–	45.69 ± 2.8	30.54 ± 1.9	21.82 ± 1.3	16.42 ± 1
[4]	1.41509 ± 0.0011	1.41117 ± 0.0011	1.40802 ± 0.0011	1.40512 ± 0.0011	–	–	–	–

Nc1ccccc1 [aniline]
Settings	refractive index, 293.15 K	refractive index, 303.15 K	refractive index, 313.15 K	refractive index, 323.15 K	viscosity, 293.15 K [mPa·s]	viscosity, 303.15 K [mPa·s]	viscosity, 313.15 K [mPa·s]	viscosity, 323.15 K [mPa·s]
[1]	–	–	–	–	4.38 ± 0.26	3.24 ± 0.2	2.47 ± 0.15	1.95 ± 0.12
[2]	1.58481 ± 0.001	1.58152 ± 0.001	1.57823 ± 0.001	1.57494 ± 0.001	–	–	–	–

Nc1ccccc1 [aniline] + CCCCn1cc[n+](C)c1.F[B-](F)(F)F
Settings	refractive index, [4]	viscosity, [3] [mPa·s]
293.15 K, x2 = 0	1.58481 ± 0.001	4.38 ± 0.26
293.15 K, x2 = 0.1001	1.55273 ± 0.0024	7.66 ± 0.82
293.15 K, x2 = 0.4991	1.47256 ± 0.0022	36.82 ± 2.4
293.15 K, x2 = 0.6032	1.45814 ± 0.0017	50.14 ± 3.3
293.15 K, x2 = 0.7021	1.44443 ± 0.0016	65.33 ± 4.3
293.15 K, x2 = 0.7907	1.43496 ± 0.0014	81.22 ± 5.4
293.15 K, x2 = 0.9026	1.42669 ± 0.0012	104.99 ± 7.2
303.15 K, x2 = 0	1.58152 ± 0.001	3.24 ± 0.2
303.15 K, x2 = 0.1001	1.54951 ± 0.0024	5.46 ± 0.51
303.15 K, x2 = 0.4991	1.46852 ± 0.0022	22.05 ± 1.4
303.15 K, x2 = 0.6032	1.4544 ± 0.0017	31.1 ± 2.1
303.15 K, x2 = 0.7021	1.44151 ± 0.0016	40.82 ± 2.7
303.15 K, x2 = 0.7907	1.43264 ± 0.0014	50.78 ± 3.3
303.15 K, x2 = 0.9026	1.42433 ± 0.0012	66.19 ± 4.3
313.15 K, x2 = 0	1.57823 ± 0.001	2.47 ± 0.15
313.15 K, x2 = 0.1001	1.54532 ± 0.0024	4.04 ± 0.35
313.15 K, x2 = 0.4991	1.46448 ± 0.0022	14.67 ± 0.94
313.15 K, x2 = 0.6032	1.45067 ± 0.0016	20.79 ± 1.4
313.15 K, x2 = 0.7021	1.43859 ± 0.0015	26.92 ± 1.8
313.15 K, x2 = 0.7907	1.43031 ± 0.0013	33.47 ± 2.2
313.15 K, x2 = 0.9026	1.42197 ± 0.0013	42.66 ± 2.7
323.15 K, x2 = 0	1.57494 ± 0.001	1.95 ± 0.12
323.15 K, x2 = 0.1001	1.54114 ± 0.0031	3.08 ± 0.23
323.15 K, x2 = 0.2028	1.51499 ± 0.0022	4.56 ± 0.33
323.15 K, x2 = 0.4991	1.46044 ± 0.002	10.52 ± 0.68
323.15 K, x2 = 0.6032	1.44694 ± 0.0016	14.73 ± 0.98
323.15 K, x2 = 0.7021	1.43567 ± 0.0015	18.58 ± 1.2
323.15 K, x2 = 0.7907	1.42799 ± 0.0013	23.06 ± 1.5
323.15 K, x2 = 0.9026	1.41961 ± 0.0013	29.65 ± 1.9
